Assay results from patent US20110312495A1, “SYNERGISTIC HERBICIDAL COMPOSITION CONTAINING CLOPYRALID AND FLORASULAM” (DOW AGROSCIENCES LLC, priority 2010, published 2011).

What was measured:
Assay in all cases: Postemergence herbicidal activity under field conditions, visual weed control
Assay type in all cases: in vivo
Conditions in all cases: field trial #1, 45 to 92 days after application
[1] = tested on: field forget-me-not (Myosotis arvensis, MYOAR)
Description: (§1) These trials were conducted under field conditions in Germany. Trial sites were located in commercially grown winter barley and winter rye. The crops were grown using normal cultural practices for fertilization, seeding, and maintenance to ensure good growth of the crop and the weeds. The trials were conducted using normal research methodology. Trial plots were between 2.5 to 3 meters (m) wide by 6 to 10 m long. All treatments were applied using a randomized complete block trial design with 3 replications per treatment. The trial sites had naturally occurring populations of weeds. The weed spectrum included, but was not limited to, scentless mayweed (Matricaria inodora, MATIN), field forget-me-not (Myosotis arvensis, MYOAR), and Bachelor's button (Centaurea cyanus, CENCY).
(§2) Treatments consisted of formulated products applied in water. The application volumes were 200 liter per hectare (L/ha). All application were made using precision bicycle sprayers using a 3 m boom using flat fan (80° or 110°) nozzles to broadcast the treatments on the testing plots.
(§3) The treated plots and control plots were rated blind at various intervals after application. Ratings were based of Percent (%) Visual weed control, where 0 corresponds to no injury and 100 corresponds to complete kill. […]

[2] = tested on: Bachelor's button (Centaurea cyanus, CENCY)
Description: as §1, §2, §3

[3] = tested on: scentless mayweed (Matricaria inodora, MATIN)
Description: as §1, §2, §3

O=C(O)c1nc(Cl)ccc1Cl [Clopyralid, 3,6-dichloropyridine-2-carboxylic acid]
MYOAR Obs - Percent control observed ([1]; clopyralid 30 g ae/ha alone): 0%
MYOAR Obs - Percent control observed ([1]; clopyralid 45 g ae/ha alone): 0%
MYOAR Obs - Percent control observed ([1]; clopyralid 60 g ae/ha alone): 0%
CENCY Obs - Percent control observed ([2]; clopyralid 30 g ae/ha alone): 37%
CENCY Obs - Percent control observed ([2]; clopyralid 45 g ae/ha alone): 57%
CENCY Obs - Percent control observed ([2]; clopyralid 60 g ae/ha alone): 73%
MATIN Obs - Percent control observed ([3]; clopyralid 30 g ae/ha alone): 0%
MATIN Obs - Percent control observed ([3]; clopyralid 45 g ae/ha alone): 50%
MATIN Obs - Percent control observed ([3]; clopyralid 60 g ae/ha alone): 58%

COc1ncc(F)c2nc(S(=O)(=O)Nc3c(F)cccc3F)nn12 [Florasulam, 2′,6′,8-trifluoro-5-methoxy[1,2,4]triazolo[1,5-c]-pyrimidine-2-sulfonanilide]
MYOAR Obs - Percent control observed ([1]; florasulam 2.5 g ai/ha alone): 50%
MYOAR Obs - Percent control observed ([1]; florasulam 3.75 g ai/ha alone): 50%
MYOAR Obs - Percent control observed ([1]; florasulam 5 g ai/ha alone): 67%
CENCY Obs - Percent control observed ([2]; florasulam 2.5 g ai/ha alone): 20%
CENCY Obs - Percent control observed ([2]; florasulam 3.75 g ai/ha alone): 40%
CENCY Obs - Percent control observed ([2]; florasulam 5 g ai/ha alone): 70%
MATIN Obs - Percent control observed ([3]; florasulam 2.5 g ai/ha alone): 60%
MATIN Obs - Percent control observed ([3]; florasulam 3.75 g ai/ha alone): 67%
MATIN Obs - Percent control observed ([3]; florasulam 5 g ai/ha alone): 53%
